Experimental data as given in PubChem BioAssay (NCI).
Several values for one entry are separate records, joined by “and”; a condition that tells them apart may be missing. Equal values may be shown once.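 These data come from cells grown in 96-well plates and exposed to compound for 48 hours at five concentrations. GI50 is the concentration that inhibits growth by half. TGI is the concentration that stops growth completely.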

Columns and labels:
Assay in all cases: DTP human tumour cell line panel, 48 h
[1] = tested on: SNB-75 CNS
[2] = tested on: BT-549 breast
[3] = tested on: DU-145 prostate
[4] = tested on: SF-539 CNS
[5] = tested on: UO-31 renal
[6] = tested on: SW-620 colon
[7] = tested on: A498 renal
[8] = tested on: KM12 colon

| SMILES | GI50 [1] | TGI [1] | GI50 [2] | TGI [2] | GI50 [3] | TGI [3] | GI50 [4] | TGI [4] | GI50 [5] | TGI [5] | GI50 [6] | TGI [6] | GI50 [7] | TGI [7] | GI50 [8] | TGI [8] |
| --- | --- | --- | --- | --- | --- | --- | --- | --- | --- | --- | --- | --- | --- | --- | --- | --- |
| Cc1ccc(-c2nc3nc(-c4ccccc4)nc(N4CCCNCC4)c3o2)cc1 | 1.36 µM | 2.68 µM | 1.63 µM | 3.19 µM | 1.82 µM | 3.3 µM | 1.82 µM | 3.31 µM | 1.55 µM | 2.96 µM | 1.55 µM | 3.17 µM | 1.53 µM | 3.13 µM | 1.77 µM | 3.41 µM |
| CCCC(=O)OCC1OC(n2cnc3c(=S)nc[nH]c32)C(OC(=O)CCC)C1OC(=O)CCC (stereo unspecified) | 4.04 µM | > 100 µM | 14.3 µM | > 100 µM | 3.06 µM | > 100 µM | 3.53 µM | > 100 µM | 7.53 µM | > 100 µM | 4.59 µM | > 100 µM | 33.2 µM | > 100 µM | 4.99 µM | > 100 µM |
| COc1ccc2c(c1)C(=O)c1c-2n(CCCn2ccnc2)c(=O)c2cc([N+](=O)[O-])ccc12 | < 0.0138 µM | 0.41 µM | < 0.0134 µM | 0.744 µM | < 0.01 µM | < 0.0294 µM | < 0.01 µM | 0.0101 µM | < 0.01 µM | 0.38 µM | < 0.0111 µM | > 39.9 µM | < 0.01 µM | 0.184 µM | < 0.0229 µM | 8.69 µM |
| COc1cc2cc(Oc3ccc(NC(=O)Nc4ccc(Cl)c(C(F)(F)F)c4)cc3)c(C)nc2cc1OCCN1CCOCC1 | 1.65 µM | 7.05 µM | 2.63 µM | 9.33 µM | 2.69 µM | 13.8 µM | 1.68 µM | 3.26 µM | 1.4 µM | 3.34 µM | 2.31 µM | 5.52 µM | 2.45 µM | 9.62 µM | 1.91 µM | 5.3 µM |
| CC[C@@]1(c2ccccc2)C2=C(CC(C)(C)CC2=O)Nc2[nH]ncc21 | 14.9 µM | > 100 µM | > 100 µM | > 100 µM | > 100 µM | > 100 µM | > 100 µM | > 100 µM | > 100 µM | > 100 µM | > 100 µM | > 100 µM | 16.7 µM | 56.3 µM | > 100 µM | > 100 µM |
| Cc1cc(Cl)cc2c1NC(=O)C2(O)CC(=O)c1ccco1 (stereo unspecified) |  | > 100 µM |  | > 100 µM |  | > 100 µM |  | > 100 µM |  | > 100 µM |  | > 100 µM |  | > 100 µM |  | > 100 µM |
| CCCCCCCC[C@@H](O)CC(=O)N[C@@H](CC(N)=O)C(=O)N[C@@H](CCC(N)=O)C(=O)N[C@@H](CC(=O)c1cc(C)cc(O)c1C(=O)c1c(O)cccc1O)CC(C)C | 0.199 µM | 0.585 µM | 0.296 µM | 2.25 µM | 1.14 µM | 18.3 µM | 0.253 µM | 0.783 µM | 3.9 µM | 24.7 µM | 0.426 µM | 23.6 µM | 2.29 µM | 7.44 µM | 0.971 µM | 3.3 µM |
| O=C(O)c1nn(-c2ccccc2-c2n[nH]c(=O)[nH]c2=O)c(=O)[nH]c1=O |  | > 100 µM |  | > 100 µM |  | > 100 µM |  | > 100 µM |  | > 100 µM |  | > 100 µM |  | > 100 µM |  | > 100 µM |
| Cc1ccc(C(=O)N(CCCN)C(c2oc3cc(Cl)ccc3c(=O)c2Cc2ccccc2)C(C)C)cc1 (stereo unspecified) | < 0.01 µM | 1.46 µM | < 0.01 µM | 2.03 µM | < 0.01 µM |  | < 0.01 µM |  | 0.67 µM | 2.46 µM | < 0.01 µM | 1.45 µM | < 0.01 µM |  | < 0.01 µM | 1.47 µM |
| CCCCCCCCn1ccc2cc(NC(=O)Cn3cc(CN4CCCC4)nn3)ccc21 | 1.52 µM | 2.93 µM | 1.65 µM | 3.39 µM | 3.12 µM | 9.61 µM | 1.73 µM | 3.19 µM | 1.54 µM | 2.88 µM | 1.86 µM | 3.6 µM | 1.7 µM | 3.35 µM | 1.95 µM | 3.98 µM |
| COc1cc[nH]c1/C=C1\C(=O)Nc2ccc(F)c(C#CC3(O)CCNCC3)c21 | 0.014 µM | 0.469 µM | 0.318 µM | 0.696 µM | 0.0429 µM | 2.14 µM | 0.106 µM | 0.426 µM | 0.119 µM | 2.19 µM | 0.0832 µM | 2.67 µM | 0.108 µM | 0.568 µM | 0.0025 µM | 0.726 µM |
| O=C1C(Cl)=C(NCCN2CCOCC2)C(=O)c2ncccc21 | 1.67 µM | 2.85 µM and 3.58 µM |  | 3.21 µM and 3.03 µM |  | 3.11 µM and 3.14 µM |  | 3.33 µM | 1.28 µM | 3.03 µM and 2.61 µM | 2.45 µM | 6.42 µM and 6.22 µM | 1.91 µM | 7.65 µM and 10.9 µM | 3.55 µM | 3.1 µM and 16.1 µM |
| CC/C=C\C[C@@H](O)C/C=C1/C(=O)C=C[C@H]1C/C=C\CCCC(=O)OC | 6.17 µM | 19.6 µM | 2.94 µM | 8.81 µM | 3.33 µM | 12.3 µM | 3.22 µM | 11.9 µM | 1.73 µM | 3.34 µM | 2.84 µM | 8.6 µM | 14.6 µM | 28.1 µM | 1.65 µM | 3.84 µM |
| Cc1ccc(C(=O)NC(C)C)cc1-c1ccc(C(=O)NCC2CC2)cc1 | > 25 µM | > 25 µM | > 25 µM | > 25 µM | > 25 µM | > 25 µM | > 25 µM | > 25 µM | > 25 µM | > 25 µM | > 25 µM | > 25 µM | > 25 µM | > 25 µM | > 25 µM | > 25 µM |
| O=C1Nc2ccccc2C1(c1ccc(O)cc1)c1ccc(O)cc1 | 12.7 µM | 38 µM | 0.0625 µM | 0.541 µM | 21 µM | 54.3 µM | 18.5 µM | 40.2 µM | 23.7 µM | > 89.1 µM | 26.2 µM | 83 µM | 17.8 µM | 47.1 µM | 12.1 µM | 28.4 µM |
| O=C1c2cccc([N+](=O)[O-])c2C(=O)N1c1ncn[nH]1 |  | 64.6 µM |  | 90 µM |  | > 100 µM |  | 36.8 µM |  | > 100 µM |  | > 100 µM |  | > 100 µM |  | > 100 µM |
